Laboratory results reported in US8846698B2, “Pyrrolo[2,3-d]pyrimidine tropomysin-related kinase inhibitors” (Pfizer Limited, priority 2011, dated 2014).

The molecules below were run against TRKA (Homo sapiens (Human), UniProt P04629) (assay: Isolated TRK enzyme assay (HTRF KinEASE-TK), TRKA). Conditions: read-out: Trka enzyme (IC50).
Type: biochemical

Sequence of TRKA (P04629 441-796): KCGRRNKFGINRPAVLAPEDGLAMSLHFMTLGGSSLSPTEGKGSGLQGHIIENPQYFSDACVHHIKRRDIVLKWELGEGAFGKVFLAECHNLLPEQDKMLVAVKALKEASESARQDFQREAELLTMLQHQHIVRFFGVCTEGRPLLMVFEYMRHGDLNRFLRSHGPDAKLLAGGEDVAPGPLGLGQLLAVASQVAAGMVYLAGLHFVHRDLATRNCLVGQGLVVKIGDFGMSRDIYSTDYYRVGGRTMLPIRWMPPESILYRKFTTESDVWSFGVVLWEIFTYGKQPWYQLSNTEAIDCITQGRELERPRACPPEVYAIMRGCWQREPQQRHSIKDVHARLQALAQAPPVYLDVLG

SMILES | IC50
CC(C)n1cc(C(=O)c2cncc(NC(=O)Cc3ccccc3OC3CC3)c2)c2cncnc21 [Example 70, 2-[2-(cyclopropyloxy)phenyl]-N-{5-[(7-isopropyl-7H-pyrrolo[2,3-d]pyrimidin-5-yl)carbonyl]pyridin-3-yl}acetamide] | 22.8 nM
CC(C)n1cc(C(=O)c2cncc(NC(=O)Cc3ccc(OC4CC4)cc3)c2)c2cncnc21 [Example 73, 2-[4-(cyclopropyloxy)phenyl]-N-{5-[(7-isopropyl-7H-pyrrolo[2,3-d]pyrimidin-5-yl)carbonyl]pyridin-3-yl}acetamide] | 283 nM
CC(C)n1cc(C(=O)c2cncc(NC(=O)Cc3cccc(OC4CC4)c3)c2)c2cncnc21 [Example 74, 2-[3-(cyclopropyloxy)phenyl]-N-{5-[(7-isopropyl-7H-pyrrolo[2,3-d]pyrimidin-5-yl)carbonyl]pyridin-3-yl}acetamide] | 1210 nM
CC(C)n1cc(C(=O)c2cncc(NC(=O)Cc3cccc(CO)c3)c2)c2cncnc21 [Example 75, 2-[3-(hydroxymethyl)phenyl]-N-{5-[(7-isopropyl-7H-pyrrolo[2,3-d]pyrimidin-5-yl)carbonyl]pyridin-3-yl}acetamide] | 567 nM
CC(C)n1cc(C(=O)c2cncc(NC(=O)CN3Cc4ccc(F)cc4C3=O)c2)c2cncnc21 [Example 78, 2-(6-fluoro-1-oxo-1,3-dihydro-2H-isoindol-2-yl)-N-{5-[(7-isopropyl-7H-pyrrolo[2,3-d]pyrimidin-5-yl)carbonyl]pyridin-3-yl}acetamide] | 203 nM
CC(C)n1cc(C(=O)c2cncc(NC(=O)Cn3ccc(-c4ccccn4)n3)c2)c2cncnc21 [Example 79, N-{5-[(7-isopropyl-7H-pyrrolo[2,3-d]pyrimidin-5-yl)carbonyl]pyridin-3-yl}-2-(3-pyridin-2-yl-1H-pyrazol-1-yl)acetamide] | 1580 nM
CC(C)n1cc(C(=O)c2cncc(NC(=O)Cc3ccc4nccnc4c3)c2)c2cncnc21 [Example 81, N-{5-[(7-isopropyl-7H-pyrrolo[2,3-d]pyrimidin-5-yl)carbonyl]pyridin-3-yl}-2-quinoxalin-6-ylacetamide] | 197 nM
CC(C)n1cc(C(=O)c2cncc(NC(=O)Cc3ccc4onc(N)c4c3)c2)c2cncnc21 [Example 83, 2-(3-amino-1,2-benzisoxazol-5-yl)-N-{5-[(7-isopropyl-7H-pyrrolo[2,3-d]pyrimidin-5-yl)carbonyl]pyridin-3-yl}acetamide] | 355 nM
CC(C)n1cc(C(=O)c2cncc(NC(=O)Cc3ccc4[nH]c(C(F)(F)F)nc4c3)c2)c2cncnc21 [Example 84, N-{5-[(7-isopropyl-7H-pyrrolo[2,3-d]pyrimidin-5-yl)carbonyl]pyridin-3-yl}-2-[2-(trifluoromethyl)-1H-benzimidazol-5-yl]acetamide] | 2860 nM
CC(C)n1cc(C(=O)c2cncc(NC(=O)Cc3cccc(S(C)(=O)=O)c3)c2)c2cncnc21 [Example 87, N-{5-[(7-isopropyl-7H-pyrrolo[2,3-d]pyrimidin-5-yl)carbonyl]pyridin-3-yl}-2-[3-(methylsulfonyl)phenyl]acetamide] | 63.2 nM
CC(C)n1cc(C(=O)c2cncc(NC(=O)Cn3cc(C4CC4)nn3)c2)c2cncnc21 [Example 88, 2-(4-cyclopropyl-1H-1,2,3-triazol-1-yl)-N-{5-[(7-isopropyl-7H-pyrrolo[2,3-d]pyrimidin-5-yl)carbonyl]pyridin-3-yl}acetamide] | 56.6 nM
CC(C)n1cc(C(=O)c2cncc(NC(=O)Cc3ccc4ocnc4c3)c2)c2cncnc21 [Example 89, 2-(1,3-benzoxazol-5-yl)-N-{5-[(7-isopropyl-7H-pyrrolo[2,3-d]pyrimidin-5-yl)carbonyl]pyridin-3-yl}acetamide] | 21.7 nM
CC(C)n1cc(C(=O)c2cncc(NC(=O)Cc3ccc4c(c3)CCO4)c2)c2cncnc21 [Example 92, 2-(2,3-dihydro-1-benzofuran-5-yl)-N-{5-[(7-isopropyl-7H-pyrrolo[2,3-d]pyrimidin-5-yl)carbonyl]pyridin-3-yl}acetamide] | 41.5 nM
CC(C)n1cc(C(=O)c2cncc(NC(=O)Cn3cc4ccccc4n3)c2)c2cncnc21 [Example 93, 2-(2H-indazol-2-yl)-N-{5-[(7-isopropyl-7H-pyrrolo[2,3-d]pyrimidin-5-yl)carbonyl]pyridin-3-yl}acetamide] | 12.4 nM
CC(C)n1cc(C(=O)c2cncc(NC(=O)Cn3cc4cc(F)ccc4n3)c2)c2cncnc21 [Example 94, 2-(5-fluoro-2H-indazol-2-yl)-N-{5-[(7-isopropyl-7H-pyrrolo[2,3-d]pyrimidin-5-yl)carbonyl]pyridin-3-yl}acetamide] | 54.8 nM
CC(C)n1cc(C(=O)c2cncc(NC(=O)Cc3ccc(Cl)cn3)c2)c2cncnc21 [Example 98, 2-(5-chloropyridin-2-yl)-N-{5-[(7-isopropyl-7H-pyrrolo[2,3-d]pyrimidin-5-yl)carbonyl]pyridin-3-yl}acetamide] | 5.16 nM
CC(C)n1cc(C(=O)c2cncc(NC(=O)Cn3ncc4ccccc43)c2)c2cncnc21 [Example 103, 2-(1H-indazol-1-yl)-N-{5-[(7-isopropyl-7H-pyrrolo[2,3-d]pyrimidin-5-yl)carbonyl]pyridin-3-yl}acetamide] | 41.7 nM

The remaining molecules from weak to strong by IC50, led by results:

IC50 | SMILES
1030 nM | CC(C)n1cc(C(=O)c2cncc(NC(=O)Cc3cncc(OC4CC4)c3)c2)c2cncnc21 [Example 91, 2-[5-(cyclopropyloxy)pyridin-3-yl]-N-{5-[(7-isopropyl-7H-pyrrolo[2,3-d]pyrimidin-5-yl)carbonyl]pyridin-3-yl}acetamide]
908 nM | CC(C)n1cc(C(=O)c2cncc(NC(=O)Cc3cnc4cccnc4c3)c2)c2cncnc21 [Example 82, N-{5-[(7-isopropyl-7H-pyrrolo[2,3-d]pyrimidin-5-yl)carbonyl]pyridin-3-yl}-2-(1,5-naphthyridin-3-yl)acetamide]
392 nM | CC(C)n1cc(C(=O)c2cncc(NC(=O)Cc3ccc4[nH]cnc4c3)c2)c2cncnc21 [Example 80, 2-(1H-benzimidazol-5-yl)-N-{5-[(7-isopropyl-7H-pyrrolo[2,3-d]pyrimidin-5-yl)carbonyl]pyridin-3-yl}acetamide]
204 nM | CC(C)n1cc(C(=O)c2cncc(NC(=O)Cn3cc4cccc(F)c4n3)c2)c2cncnc21 [Example 101, 2-(7-fluoro-2H-indazol-2-yl)-N-{5-[(7-isopropyl-7H-pyrrolo[2,3-d]pyrimidin-5-yl)carbonyl]pyridin-3-yl}acetamide]
173 nM | CC(C)n1cc(C(=O)c2cncc(NC(=O)Cc3ccc(C#N)c(F)c3)c2)c2cncnc21 [Example 76, 2-(4-cyano-3-fluorophenyl)-N-{5-[(7-isopropyl-7H-pyrrolo[2,3-d]pyrimidin-5-yl)carbonyl]pyridin-3-yl}acetamide]
95.5 nM | CC(C)n1cc(C(=O)c2cncc(NC(=O)Cn3ncc4ncccc43)c2)c2cncnc21 [Example 86, N-{5-[(7-isopropyl-7H-pyrrolo[2,3-d]pyrimidin-5-yl)carbonyl]pyridin-3-yl}-2-(1H-pyrazolo[4,3-b]pyridin-1-yl)acetamide]
70.8 nM | CC(C)n1cc(C(=O)c2cncc(NC(=O)Cc3ccn4ccnc4c3)c2)c2cncnc21 [Example 85, 2-imidazo[1,2-a]pyridin-7-yl-N-{5-[(7-isopropyl-7H-pyrrolo[2,3-d]pyrimidin-5-yl)carbonyl]pyridin-3-yl}acetamide]
64.3 nM | COc1cc(CC(=O)Nc2cncc(C(=O)c3cn(C(C)C)c4ncncc34)c2)ccc1C#N [Example 77, 2-(4-cyano-3-methoxyphenyl)-N-{5-[(7-isopropyl-7H-pyrrolo[2,3-d]pyrimidin-5-yl)carbonyl]pyridin-3-yl}acetamide]
63.3 nM | CC(C)n1cc(C(=O)c2cncc(NC(=O)Cc3ccc(C#N)c(C(F)(F)F)c3)c2)c2cncnc21 [Example 72, 2-[4-cyano-3-(trifluoromethyl)phenyl]-N-{5-[(7-isopropyl-7H-pyrrolo[2,3-d]pyrimidin-5-yl)carbonyl]pyridin-3-yl}acetamide]
42.9 nM | CC(C)n1cc(C(=O)c2cncc(NC(=O)Cn3ncc4cccnc43)c2)c2cncnc21 [Example 102, N-{5-[(7-isopropyl-7H-pyrrolo[2,3-d]pyrimidin-5-yl)carbonyl]pyridin-3-yl}-2-(1H-pyrazolo[3,4-b]pyridin-1-yl)acetamide]
25.6 nM | CC(C)n1cc(C(=O)c2cncc(NC(=O)Cc3ccc4cccnc4c3)c2)c2cncnc21 [Example 100, N-{5-[(7-isopropyl-7H-pyrrolo[2,3-d]pyrimidin-5-yl)carbonyl]pyridin-3-yl}-2-quinolin-7-ylacetamide]
20 nM | Cc1cc(C(C)C)nn1CC(=O)Nc1cncc(C(=O)c2cn(C(C)C)c3ncncc23)c1 [Example 104, 2-(3-isopropyl-5-methyl-1H-pyrazol-1-yl)-N-{5-[(7-isopropyl-7H-pyrrolo[2,3-d]pyrimidin-5-yl)carbonyl]pyridin-3-yl}acetamide]
8.81 nM | CC(C)n1cc(C(=O)c2cncc(NC(=O)Cn3ccc(C4CC4)n3)c2)c2cncnc21 [Example 90, 2-(3-cyclopropyl-1H-pyrazol-1-yl)-N-{5-[(7-isopropyl-7H-pyrrolo[2,3-d]pyrimidin-5-yl)carbonyl]pyridin-3-yl}acetamide]
5.45 nM | Cc1cc(C(F)(F)F)nn1CC(=O)Nc1cncc(C(=O)c2cn(C(C)C)c3ncncc23)c1 [Example 96, N-{5-[(7-isopropyl-7H-pyrrolo[2,3-d]pyrimidin-5-yl)carbonyl]pyridin-3-yl}-2-[5-methyl-3-(trifluoromethyl)-1H-pyrazol-1-yl]acetamide]
4.86 nM | CC(C)n1cc(C(=O)c2cncc(NC(=O)Cn3ccc(C(F)(F)F)n3)c2)c2cncnc21 [Example 97, N-{5-[(7-isopropyl-7H-pyrrolo[2,3-d]pyrimidin-5-yl)carbonyl]pyridin-3-yl}-2-[3-(trifluoromethyl)-1H-pyrazol-1-yl]acetamide]
3.95 nM | CC(C)n1cc(C(=O)c2cncc(NC(=O)Cn3ncc4cc(F)ccc43)c2)c2cncnc21 [Example 95, 2-(5-fluoro-1H-indazol-1-yl)-N-{5-[(7-isopropyl-7H-pyrrolo[2,3-d]pyrimidin-5-yl)carbonyl]pyridin-3-yl}acetamide]
